This is an account of results in patent US20060241301A1, “Urea derivatives and their use as tyrosinkinase inhibitors” (priority 2003, published 2006).

Molecules are shown by their SMILES.

Test [1] addresses TIE-2 (Homo sapiens, UniProt Q02763). In words: TIE-2 kinase flashplate assay (phosphorylation of poly(Glu, Tyr), 33P-ATP). To be noted: read-out: Inhibition by TIE-2 IC50. It counts as biochemical. As for the experimental part:
The TIE-2 tests can be carried out, for example, analogously to the methods indicated in WO 02/44156.
The assay determines the inhibiting activity of the substances to be tested in the phosphorylation of the substrate poly(Glu, Tyr) by Tie-2 kinase in the presence of radioactive ^33P-ATP. The phosphorylated substrate binds to the surface of a “flashplate” microtitre plate during the incubation time. After removal of the reaction mixture, the microtitre plate is washed a number of times and the radioactivity on its surface is subsequently measured. An inhibiting effect of the substances to be measured results in lower radioactivity compared with an undisturbed enzymatic reaction.

Test [2] has as its target RAF. In words: RAF kinase inhibition. In kind it is biochemical.

Sequence of TIE-2 (Q02763 23-1124, species assumed): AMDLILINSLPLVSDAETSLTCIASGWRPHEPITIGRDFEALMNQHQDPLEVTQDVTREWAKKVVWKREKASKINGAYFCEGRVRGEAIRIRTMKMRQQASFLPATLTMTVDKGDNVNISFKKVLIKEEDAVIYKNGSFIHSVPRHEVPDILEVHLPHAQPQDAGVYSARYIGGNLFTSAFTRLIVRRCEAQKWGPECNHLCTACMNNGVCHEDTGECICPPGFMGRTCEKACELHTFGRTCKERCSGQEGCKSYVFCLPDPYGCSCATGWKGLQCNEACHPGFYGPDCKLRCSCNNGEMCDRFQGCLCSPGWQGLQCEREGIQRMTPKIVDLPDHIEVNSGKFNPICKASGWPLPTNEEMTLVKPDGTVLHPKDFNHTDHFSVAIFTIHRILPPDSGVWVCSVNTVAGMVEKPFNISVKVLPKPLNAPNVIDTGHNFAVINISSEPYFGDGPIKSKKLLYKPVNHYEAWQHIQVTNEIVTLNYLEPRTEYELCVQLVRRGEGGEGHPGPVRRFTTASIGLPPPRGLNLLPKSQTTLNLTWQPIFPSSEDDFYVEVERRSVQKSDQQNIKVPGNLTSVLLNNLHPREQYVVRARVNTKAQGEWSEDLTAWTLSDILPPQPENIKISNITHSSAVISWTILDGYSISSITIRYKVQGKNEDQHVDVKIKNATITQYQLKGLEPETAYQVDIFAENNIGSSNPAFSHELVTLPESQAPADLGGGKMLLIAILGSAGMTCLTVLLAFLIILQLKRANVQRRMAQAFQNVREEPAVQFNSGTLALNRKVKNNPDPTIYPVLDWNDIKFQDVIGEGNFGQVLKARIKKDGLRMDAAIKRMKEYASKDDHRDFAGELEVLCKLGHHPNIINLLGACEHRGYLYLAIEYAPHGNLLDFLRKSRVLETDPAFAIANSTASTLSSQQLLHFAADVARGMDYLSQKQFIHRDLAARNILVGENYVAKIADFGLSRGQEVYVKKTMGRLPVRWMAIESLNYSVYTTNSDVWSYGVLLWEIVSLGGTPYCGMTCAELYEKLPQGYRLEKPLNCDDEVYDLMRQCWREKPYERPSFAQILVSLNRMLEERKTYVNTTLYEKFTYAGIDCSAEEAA

Regarding `CNC(=O)c1cc(Oc2ccc(NC(=O)Nc3cc(C(F)(F)F)ccc3F)cc2)ccn1` [No. 2, N-methyl-4-{4-[3-(fluorotrifluoromethylphenyl)ureido]phenoxy}pyridine-2-carboxamide], in test [1], the IC50 (usually the midpoint of a concentration-inhibition curve) was 32 nM.
Compound `CNC(=O)c1cc(Oc2ccc(NC(=O)Nc3ccc(Cl)c(C(F)(F)F)c3)cc2)ccn1` returned a half-maximal inhibitory concentration (IC50) in test [2] of 264 nM.
With `O=C(Nc1ccc(Oc2ccc3nsnc3c2)cc1)Nc1cc(C(F)(F)F)ccc1F` [A1, 1-[4-(Benzo-1,2,5-thiadiazol-5-yloxy)phenyl]-3-(2-fluoro-5-trifluoromethylphenyl)urea], the IC50 worked out at 220 nM in test [2] and 57 nM in test [1].
